Patent publication US6410558B1, “Fungicides for the control of take-all disease of plants” (Monsanto Technology LLC, priority 1991, dated 2002)

Legend:
Ggt = experiment: In vivo Assay: control of Ggt on wheat grown in pots of Ggt-infested soil, root disease rating; parameters: species or system Gaeumannomyces graminis var. tritici; conditions: Gaeumannomyces graminis, 672 h; 0.5 mg active ingredient per pot; 'Bergen' or 'Anza' wheat in Ggt-infested soil; after four weeks; vs untreated control; read-out: In vivo, percent disease control
Procedure, shortened: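 Wheat ('Bergen' or 'Anza') seeds in soil infested with Ggt-colonised oats (4% v/v) treated at 0.5 mg active ingredient per pot in acetone/water with Tween 20; five pots per treatment. After four weeks, seminal roots rated 0–5; trimmed mean of three replicates converted to percent disease control versus untreated.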

[1] = tested on: Gaeumannomyces graminis var. tritici (Ggt); experiment: In vitro Assay: mycelial growth of Ggt on minimal media agar plates containing test compound; type: cell-based; conditions: Gaeumannomyces graminis, dark, 19-20° C., 4 to 5 days, diameter of mycelial growth; for inhibition at 0.1 ppm: 0.1 ppm in minimal media agar, read-out: In vitro (ppm) 0.1, Percent Inhibition; for inhibition at 1 ppm: 1 ppm in minimal media agar, read-out: In vitro (ppm) 1, Percent Inhibition; for inhibition at 10 ppm: 10 ppm in minimal media agar, read-out: In vitro (ppm) 10, Percent Inhibition
Procedure, shortened: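 Ggt mycelial diameter read after 4 to 5 days in darkness at 19-20° C, from three 4-mm plugs placed on Czapek Dox minimal agar containing test compound delivered in acetone. Inhibition expressed as percent versus untreated plates, plug size (4 mm) subtracted from both.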

| SMILES | melting point | pest or weed control at 0.5 mg/pot (Ggt) | inhibition at 0.1 ppm [1] | inhibition at 1 ppm [1] | inhibition at 10 ppm [1] |
| --- | --- | --- | --- | --- | --- |
| CC(CCl)NC(=O)c1c(Cl)cccc1[Si](C)(C)C (stereo not drawn) [Example 171, 2-Chloro-N-(2-chloro-1-methylethyl)-6-(trimethylsilyl)benzamide] | 150 to 151 °C | 87% | 48% | 88% | 97% |
| CC1(c2cccc(F)c2C(=O)NCCCl)CCC1 [Example 199, N-(2-Chloroethyl)-2-fluoro-6-(1-methylcyclobutyl)benzamide] | 108 to 110 °C | – | – | – | – |
| CCNC(=O)c1ccccc1[Si](C)(C)C [Example 49, N-Ethyl-2-(trimethylsilyl)benzamide] | – | 97% | 100% | 100% | 100% |
| C=CCONC(=O)c1c([Si](C)(C)C)ccc(Cl)c1Cl [Example 204, 2,3-Dichloro-N-(2-propenyloxy)-6-(trimethylsilyl)benzamide] | – | 43% | < 0% | < 0% | 74% |
| C[Si](C)(C)c1cccc(Cl)c1C(=O)NC1CC1 [Example 34, 2-Chloro-N-cyclopropyl-6-(trimethylsilyl)benzamide] | – | 100% | 97% | 100% | 100% |
